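Test compounds were applied to cells in 96-well plates for 48 hours at 5 doses. The concentration for 50% growth inhibition is given as GI50. TGI denotes the concentration required for complete inhibition of growth.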
Experiments:
Assay in all cases: NCI tumour cell line growth inhibition, 48 h
SF-539 CNS = tested on: SF-539 CNS
HOP-62 NSCLC = tested on: HOP-62 NSCLC
RXF 393 renal = tested on: RXF 393 renal
UO-31 renal = tested on: UO-31 renal
CCRF-CEM leukemia = tested on: CCRF-CEM leukemia
PC-3 prostate = tested on: PC-3 prostate
786-0 renal = tested on: 786-0 renal
SF-295 CNS = tested on: SF-295 CNS
HCC-2998 colon = tested on: HCC-2998 colon
COLO 205 colon = tested on: COLO 205 colon
HT29 colon = tested on: HT29 colon
TK-10 renal = tested on: TK-10 renal
BT-549 breast = tested on: BT-549 breast
SK-OV-3 ovarian = tested on: SK-OV-3 ovarian
SF-268 CNS = tested on: SF-268 CNS
UACC-62 melanoma = tested on: UACC-62 melanoma
OVCAR-5 ovarian = tested on: OVCAR-5 ovarian
NCI-H23 lung = tested on: NCI-H23 lung
K-562 leukemia = tested on: K-562 leukemia
UACC-257 melanoma = tested on: UACC-257 melanoma
MALME-3M melanoma = tested on: MALME-3M melanoma
A549 NSCLC = tested on: A549 NSCLC
U251 CNS = tested on: U251 CNS
MOLT-4 leukemia = tested on: MOLT-4 leukemia
M14 melanoma = tested on: M14 melanoma
T-47D breast = tested on: T-47D breast
NCI-H522 lung = tested on: NCI-H522 lung
NCI-H226 lung = tested on: NCI-H226 lung
SK-MEL-28 melanoma = tested on: SK-MEL-28 melanoma
NCI/ADR-RES ovarian = tested on: NCI/ADR-RES ovarian
SN12C renal = tested on: SN12C renal
OVCAR-8 ovarian = tested on: OVCAR-8 ovarian
A498 renal = tested on: A498 renal
SW-620 colon = tested on: SW-620 colon
ACHN renal = tested on: ACHN renal
KM12 colon = tested on: KM12 colon
HOP-92 NSCLC = tested on: HOP-92 NSCLC
IGROV1 ovarian = tested on: IGROV1 ovarian
EKVX NSCLC = tested on: EKVX NSCLC
MCF7 breast = tested on: MCF7 breast
RPMI-8226 leukemia = tested on: RPMI-8226 leukemia
CAKI-1 renal = tested on: CAKI-1 renal
DU-145 prostate = tested on: DU-145 prostate
SNB-75 CNS = tested on: SNB-75 CNS
HCT-15 colon = tested on: HCT-15 colon
SK-MEL-2 melanoma = tested on: SK-MEL-2 melanoma
SR leukemia = tested on: SR leukemia
OVCAR-4 ovarian = tested on: OVCAR-4 ovarian
HL-60(TB) leukemia = tested on: HL-60(TB) leukemia
HS 578T breast = tested on: HS 578T breast
SNB-19 CNS = tested on: SNB-19 CNS
MDA-MB-231 breast = tested on: MDA-MB-231 breast
SK-MEL-5 melanoma = tested on: SK-MEL-5 melanoma
MDA-MB-435 = tested on: MDA-MB-435
HCT-116 colon = tested on: HCT-116 colon
NCI-H460 lung = tested on: NCI-H460 lung

Work on `COc1ccc(Cn2cc3c(c2-c2cc(OC)c(OC)c(OC)c2)CCc2c(CN4CCCC4)noc2-3)cc1` yielded a GI50 (SF-539 CNS) of 0.753 µM, a TGI (SF-539 CNS) of 4.46 µM and a GI50 (HOP-62 NSCLC) of 1.41 µM. For the same compound, the TGI (HOP-62 NSCLC) was 32.6 µM, the GI50 (RXF 393 renal) was 0.893 µM and the TGI (RXF 393 renal) was 7.96 µM. It also gave a GI50 (UO-31 renal) of 1.16 µM, a TGI (UO-31 renal) of 13.7 µM and a GI50 (CCRF-CEM leukemia) of 0.727 µM. It also gave a TGI (CCRF-CEM leukemia) greater than 100 µM, a GI50 (PC-3 prostate) of 0.636 µM and a TGI (PC-3 prostate) greater than 100 µM. It also gave a GI50 (786-0 renal) of 0.997 µM, a TGI (786-0 renal) of 21.9 µM and a GI50 (SF-295 CNS) of 0.461 µM. For the same compound, the TGI (SF-295 CNS) was 12.4 µM, the GI50 (HCC-2998 colon) was 1.84 µM and the TGI (HCC-2998 colon) was 14.6 µM. For the same compound, the GI50 (COLO 205 colon) was 0.941 µM, the TGI (COLO 205 colon) was 5.49 µM and the GI50 (HT29 colon) was 0.398 µM. It also gave a TGI (HT29 colon) of 12.6 µM, a GI50 (TK-10 renal) of 23.4 µM and a TGI (TK-10 renal) greater than 100 µM. It also gave a GI50 (BT-549 breast) of 2.47 µM, a TGI (BT-549 breast) of 14.3 µM and a GI50 (SK-OV-3 ovarian) of 6.7 µM. For the same compound, the TGI (SK-OV-3 ovarian) was greater than 100 µM, the GI50 (SF-268 CNS) was 3.15 µM and the TGI (SF-268 CNS) was 29.8 µM. For the same compound, the GI50 (UACC-62 melanoma) was 0.545 µM, the TGI (UACC-62 melanoma) was 22.7 µM and the GI50 (OVCAR-5 ovarian) was 3.2 µM. The TGI (OVCAR-5 ovarian) was greater than 100 µM, the GI50 (NCI-H23 lung) was 2.8 µM and the TGI (NCI-H23 lung) was greater than 100 µM. The GI50 (K-562 leukemia) was 0.348 µM, the TGI (K-562 leukemia) was 16.6 µM and the GI50 (UACC-257 melanoma) was 17 µM. For the same compound, the TGI (UACC-257 melanoma) was 47.7 µM, the GI50 (MALME-3M melanoma) was 0.496 µM and the TGI (MALME-3M melanoma) was 21.4 µM. It also gave a GI50 (A549 NSCLC) of 1.33 µM, a TGI (A549 NSCLC) greater than 100 µM and a GI50 (U251 CNS) of 0.543 µM. The TGI (U251 CNS) was 21.1 µM, the GI50 (MOLT-4 leukemia) was 1.47 µM and the TGI (MOLT-4 leukemia) was 32.8 µM. It also gave a GI50 (M14 melanoma) of 0.582 µM, a TGI (M14 melanoma) of 10.6 µM and a GI50 (T-47D breast) of 2.65 µM. The TGI (T-47D breast) was 48 µM, the GI50 (NCI-H522 lung) was 0.472 µM and the TGI (NCI-H522 lung) was 18.9 µM. The GI50 (NCI-H226 lung) was 2.07 µM, the TGI (NCI-H226 lung) was 30.3 µM and the GI50 (SK-MEL-28 melanoma) was 11.5 µM. It also gave a TGI (SK-MEL-28 melanoma) of 29.6 µM, a GI50 (NCI/ADR-RES ovarian) of 0.55 µM and a TGI (NCI/ADR-RES ovarian) of 11.2 µM. It also gave a GI50 (SN12C renal) of 4.43 µM, a TGI (SN12C renal) of 78 µM and a GI50 (OVCAR-8 ovarian) of 3.27 µM. The TGI (OVCAR-8 ovarian) was 78.9 µM, the GI50 (A498 renal) was 0.78 µM and the TGI (A498 renal) was 6.38 µM. It also gave a GI50 (SW-620 colon) of 0.54 µM, a TGI (SW-620 colon) of 80.3 µM and a GI50 (ACHN renal) of 0.634 µM. For the same compound, the TGI (ACHN renal) was 36.5 µM, the GI50 (KM12 colon) was 12.6 µM and the TGI (KM12 colon) was 81.2 µM. It also gave a GI50 (HOP-92 NSCLC) of 1.35 µM, a TGI (HOP-92 NSCLC) of 12 µM and a GI50 (IGROV1 ovarian) of 0.892 µM. It also gave a TGI (IGROV1 ovarian) greater than 100 µM, a GI50 (EKVX NSCLC) of 2.11 µM and a TGI (EKVX NSCLC) greater than 100 µM. It also gave a GI50 (MCF7 breast) of 0.325 µM, a TGI (MCF7 breast) of 20 µM and a GI50 (RPMI-8226 leukemia) of 1.27 µM. It also gave a TGI (RPMI-8226 leukemia) of 9.04 µM, a GI50 (CAKI-1 renal) of 0.451 µM and a TGI (CAKI-1 renal) of 20.2 µM. It also gave a GI50 (DU-145 prostate) of 4 µM, a TGI (DU-145 prostate) greater than 100 µM and a GI50 (SNB-75 CNS) of 0.668 µM. It also gave a TGI (SNB-75 CNS) of 4.83 µM, a GI50 (HCT-15 colon) of 0.475 µM and a TGI (HCT-15 colon) of 12.1 µM. It also gave a GI50 (SK-MEL-2 melanoma) of 13.2 µM, a TGI (SK-MEL-2 melanoma) of 41.4 µM and a GI50 (SR leukemia) of 0.36 µM. For the same compound, the TGI (SR leukemia) was 13.5 µM, the GI50 (OVCAR-4 ovarian) was 21.4 µM and the TGI (OVCAR-4 ovarian) was greater than 100 µM. It also gave a GI50 (HL-60(TB) leukemia) of 0.317 µM, a TGI (HL-60(TB) leukemia) of 1.28 µM and a GI50 (HS 578T breast) of 1.8 µM. It also gave a TGI (HS 578T breast) of 27.3 µM, a GI50 (SNB-19 CNS) of 0.78 µM and a TGI (SNB-19 CNS) greater than 100 µM. It also gave a GI50 (MDA-MB-231 breast) of 3.05 µM, a TGI (MDA-MB-231 breast) of 15.2 µM and a GI50 (SK-MEL-5 melanoma) of 1.02 µM. It also gave a TGI (SK-MEL-5 melanoma) of 11.9 µM, a GI50 (MDA-MB-435) of 0.239 µM and a TGI (MDA-MB-435) of 0.595 µM. The GI50 (HCT-116 colon) was 0.466 µM, the TGI (HCT-116 colon) was 14.9 µM and the GI50 (NCI-H460 lung) was 0.566 µM. It also gave a TGI (NCI-H460 lung) of 12.6 µM.
